For assay [1], the target named is T1, Metabotropic glutamate receptor 5 (Homo sapiens, UniProt P41594). Put plainly: Radioligand Binding Assay at Cloned Human mGluR5 Receptor Subtype: Affinity at transmembrane glutamate metabotropic cloned human mGluR5 receptor was evaluated according to the methods of Anderson (Anderson et al., J Pharmacol. Exp. Ther., (2002), Vol. 303(3), pp. 1044-51), with some modifications. Human cloned mGluR5 was obtained by re-suspending CHO T-REx h-mGluR5 cells (50 μg/well) in 20 mM HEPES, 2 mM MgCl2, 2 mM CaCl2, pH 7.4, that then were incubated in a final volume of 1 ml for 60 min at 25° C. with 4 nM [3H]MPEP in the absence or presence of competing drugs. Non-specific binding was determined in the presence of 10 μM MPEP. The incubation was stopped by addition of cold Tris buffer pH 7.4 and rapid filtration through 0.2% polyethyleneimine pretreated Filtermat 1204-401 (Perkin Elmer) filters. The filters were then washed with cold buffer and the radioactivity retained on the filters was counted by liquid scintillation spectrometry (Betaplate 1204 BS-Wallac).
T1 sequence (P41594 whole entry): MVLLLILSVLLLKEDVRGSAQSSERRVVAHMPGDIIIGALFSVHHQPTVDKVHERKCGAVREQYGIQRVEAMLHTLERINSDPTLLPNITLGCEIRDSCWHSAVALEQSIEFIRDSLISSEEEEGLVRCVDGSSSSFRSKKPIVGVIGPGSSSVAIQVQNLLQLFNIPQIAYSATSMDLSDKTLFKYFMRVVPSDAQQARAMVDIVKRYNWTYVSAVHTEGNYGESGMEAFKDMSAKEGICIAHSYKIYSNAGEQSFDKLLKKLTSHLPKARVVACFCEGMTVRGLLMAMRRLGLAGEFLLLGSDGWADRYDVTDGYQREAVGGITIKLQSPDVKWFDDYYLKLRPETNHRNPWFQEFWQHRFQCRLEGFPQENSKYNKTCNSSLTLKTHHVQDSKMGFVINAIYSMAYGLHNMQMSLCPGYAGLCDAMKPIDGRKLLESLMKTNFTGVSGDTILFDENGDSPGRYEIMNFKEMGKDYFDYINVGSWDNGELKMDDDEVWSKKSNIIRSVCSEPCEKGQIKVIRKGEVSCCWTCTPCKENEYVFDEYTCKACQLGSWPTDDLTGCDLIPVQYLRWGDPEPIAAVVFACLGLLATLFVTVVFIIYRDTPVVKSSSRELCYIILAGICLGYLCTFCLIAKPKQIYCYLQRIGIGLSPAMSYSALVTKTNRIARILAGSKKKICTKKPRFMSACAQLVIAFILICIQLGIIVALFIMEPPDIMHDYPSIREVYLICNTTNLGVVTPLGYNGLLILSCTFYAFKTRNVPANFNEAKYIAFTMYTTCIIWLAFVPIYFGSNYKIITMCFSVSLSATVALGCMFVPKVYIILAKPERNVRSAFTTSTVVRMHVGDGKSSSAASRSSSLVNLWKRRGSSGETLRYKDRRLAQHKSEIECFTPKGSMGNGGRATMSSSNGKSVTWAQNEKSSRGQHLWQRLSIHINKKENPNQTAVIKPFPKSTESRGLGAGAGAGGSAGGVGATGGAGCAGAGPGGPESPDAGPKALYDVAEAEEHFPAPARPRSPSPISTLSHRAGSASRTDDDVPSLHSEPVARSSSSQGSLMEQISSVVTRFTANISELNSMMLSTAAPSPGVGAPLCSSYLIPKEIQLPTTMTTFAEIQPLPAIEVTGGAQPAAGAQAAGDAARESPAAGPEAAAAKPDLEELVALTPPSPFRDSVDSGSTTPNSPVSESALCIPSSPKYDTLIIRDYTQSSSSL

Assay [2] deals with T1, Metabotropic glutamate receptor 5. Put plainly: Fold Shift of Agonist Curve Determination: The PAM potency was evaluated by performing an agonist concentration response curve in the presence of the compounds. The compounds at fixed concentration (0.01 or 0.1 or 1 μM) were applied 10 minutes before the incubation of the agonist (quisqualate or glutamate) dose-response curve. The fold shift was determined as ratio of EC50 agonist curves in presence and in absence of test compound.

The record followed here is ChEMBL document CHEMBL5729315, “Heterocyclylmethylidene derivatives and their use as modulators of mGluR5 receptors” (2022).

Usually Ki stands for the dissociation constant of the complex between target and ligand, obtained from inhibition or displacement. Usually EC50 stands for the concentration that produces a half-maximal response.

Consider `Cc1cccc(C#CC=C2CC(C)(C)NC(C)(C)C2)n1`, for which the Ki in assay [1] turned out to be 0.0269 µM. As for `COc1cc(OC)nc(C(=O)N2CC/C(=C\C#Cc3cccc(Cl)c3)C(C)(C)C2)n1`, the Ki in assay [1] stood at 0.00224 µM. The EC50 in assay [2] came out at 0.0517 µM.
